Data published in patent US20250018049A1, “COMPOUNDS FOR DEGRADING CYCLIN-DEPENDENT KINASE 2 VIA UBIQUITIN PROTEOSOME PATHWAY” (NIKANG THERAPEUTICS, INC., priority 2020, published 2025).

Columns and labels:
CDK2 [1] = molecular target: T1, CDK2 (Homo sapiens, UniProt P24941); experiment: Phospho-Rb HTRF measurement in OVCAR3 cells (inhibition of CDK2); format: cell-based; design: High-Throughput Measurement of Cellular Endogenous CDK2; endogenous in cells; host or cells: OVCAR3; conditions: pRB(S807/811) assay, 24 h compound treatment
Procedure: Phosphorylation of RB protein at S780 and S807/811 were measured using HTRF phospho-RB cellular kits (Cat #64RBS780PEG and 64RBS807PEG) from Cisbio.
On Day 1, OVCAR3 or KYSE520 cells were seeded into 96-well tissue-culture treated plates at 20,000 cells/well in 200 μL and incubated overnight at 37° C. in CO2 atmosphere. On Day 2, the cells were treated with test compounds at concentrations from 0.3 to 10,000 nM using HP D300 digital dispenser. Twenty-four hours after compound treatment, cell culture media was removed by flicking the plate and tapping the plate against clean paper towel. Immediately 30 μL 1× lysis buffer was supplemented from the kit and the plate was incubated at room temperature on shaker for 30 min. After homogenization by pipetting up and down, 8 μL cell lysate from 96-well cell culture plate was transferred to 384-well small volume white detection plate. 2 μL premixed detection solution was added and the plate was covered with sealer. To prepare the detection solution, d2 conjugated-phospho-RB antibody and Eu-cryptate conjugated phosphor-RB antibody were diluted into detection buffer following manufacturer's instruction. Detection plates were incubated for 4 h at room temperature and read on ClarioStar (BMG Labtech) in TR-FRET mode (665 nM and 620 nM). The TR-FRET ratio (665 nM/620 nM) was plotted against the compound concentration and normalized to DMSO controls. Half maximal inhibition concentration (IC50) values are calculated with a four-parameter logistic fit using GraphPad Prism (version 8; La Jolla, CA).

CDK2 [2] = molecular target: T1, CDK2; experiment: NanoBRET CDK2 engagement assay; format: cell-based; design: expressed in transfected cells; conditions: OVCAR3 cells with stable CDK2-Luciferase vector, 24 hours treatment
Procedure: OVCAR3 cells with stable transfection of CDK2-Luciferase vector were seeded into 96-well plate at a density of 20,000 cells per well, 50 μL Opti-MEM medium supplemented with 1% FBS. Following morning, cells were treated with compounds of the disclosure, with starting concentration at 3 μM and ½ log dilution down to 0.3 nM for 24 hours at 37° C. DMSO treatment serves as control. Compound engagement was then measured using NanoBRE™ Kinase Kit from Promega (Part Number: CS1810C122, NanoBRET™ TE Kinase Kit #10, 1K) following manufacturer's instruction. For 24 hours treatment, tracer was added only for the last 2 hours. Briefly, 2.5 μL of complete 20× NanoBRET Tracer was added to the cells in suspension. Immediately prior to BRET measurements, prepare 3× Complete NanoBRET® Nano-Glo® Substrate in Opti-MEM without serum and phenol red. Without any delay, 25 μL per well of 3× Complete NanoBRET™ Nano-Glo® Substrate for a 96-well plate was added and mixed well. Signal was then read on a CLARIOstar® plate reader (measure donor emission (e.g., 450 nm) and acceptor emission (e.g., 610 nm or 630 nm) using a NanoBRET™-compatible luminometer. Target engagement was calculated with DMSO treatment as 100% signal, and IC50 was calculated by GraphPad Prism 9.

SMILES | IC50 (CDK2 [1]) | IC50 (CDK2 [2])
O=C1CCC(N2Cc3c(OCCN4CCC(Oc5cccc(S(=O)(=O)N6CCC(Nc7ncc8ccc(=O)n(C9CCCC9)c8n7)CC6)c5)CC4)cccc3C2=O)C(=O)N1 (stereo not drawn) [Compound 29, 3-(4-(2-(4-(3-((4-((8-cyclopentyl-7-oxo-7,8-dihydropyrido[2,3-d]pyrimidin-2-yl)amino)-piperidin-1-yl)sulfonyl)phenoxy)piperidin-1-yl)ethoxy)-1-oxoisoindolin-2-yl)piperidine-2,6-dione] | 216 nM | 426 nM
O=C1CCC(N2C(=O)c3cc(F)c(N4CCN(Cc5cc(F)cc(S(=O)(=O)N6CCC(Nc7ncc8ccc(=O)n(C9CCCC9)c8n7)CC6)c5)CC4)cc3C2=O)C(=O)N1 (stereo not drawn) [Compound 43, 5-(4-(3-((4-((8-cyclopentyl-7-oxo-7,8-dihydro-pyrido[2,3-d]pyrimidin-2-yl)amino)piperidin-1-yl)sulfonyl)-5-fluorobenzyl)piperazin-1-yl)-2-(2,6-dioxopiperidin-3-yl)-6-fluoroisoindoline-1,3-dione] | 465 nM | 401 nM
CN(C1CCC(Nc2cccc3c2C(=O)N(C2CCC(=O)NC2=O)C3=O)CC1)S(=O)(=O)N1CCC(Nc2ncc3ccc(=O)n(C4CCCC4)c3n2)CC1 (stereo not drawn) [Compound 15, 4-((8-cyclopentyl-7-oxo-7,8-dihydropyrido[2,3-d]pyrimidin-2-yl)amino)-N-(4-((2-(2,6-dioxo-piperidin-3-yl)-1,3-dioxoisoindolin-4-yl)amino)-cyclohexyl)-N-methylpiperidine-1-sulfonamide] | 2020 nM | 356 nM
O=C1CCC(N2C(=O)c3cc(F)c(N4CC5CCC(C4)N5Cc4cccc(S(=O)(=O)N5CCC(Nc6ncc7ccc(=O)n(C8CCCC8)c7n6)CC5)c4)cc3C2=O)C(=O)N1 (stereo not drawn) [Compound 49, 5-(8-(3-((4-((8-cyclopentyl-7-oxo-7,8-dihydro-pyrido[2,3-d]pyrimidin-2-yl)amino)piperidin-1-yl)sulfonyl)benzyl)-3,8-diazabicyclo[3.2.1]octan-3-yl)-2-(2,6-dioxopiperidin-3-yl)-6-fluoroi-soindoline-1,3-dione] | 836 nM | 272 nM
CN(CCCOCCCc1cccc2c1n(C)c(=O)n2C1CCC(=O)NC1=O)S(=O)(=O)N1CCC(Nc2ncc3ccc(=O)n(C4CCCC4)c3n2)CC1 (stereo not drawn) [Compound 19, 4-((8-cyclopentyl-7-oxo-7,8-dihydropyrido[2,3-d]pyrimidin-2-yl)amino)-N-(3-(3-(1-(2,6-dioxo-piperidin-3-yl)-3-methyl-2-oxo-2,3-dihydro-1H-benzo[d]imidazol-4-yl)propoxy)propyl)-N-methylpiperidine-1-sulfonamide] | 707 nM | 253 nM
Cn1nc(N2CCC(=O)NC2=O)c2ccc(C3CCN(Cc4cccc(S(=O)(=O)N5CCC(Nc6ncc7ccc(=O)n(C8CCCC8)c7n6)CC5)c4)CC3)cc21 [Compound 71, 1-(6-(1-(3-((4-((8-cyclopentyl-7-oxo-7,8-dihydropyrido[2,3-d]pyrimidin-2-yl)amino)-piperidin-1-yl)sulfonyl)-benzyl)piperidin-4-yl)-1-methyl-1H-indazol-3-yl)dihydropyrimidine-2,4(1H,3H)-dione] | 10.3 nM | 167 nM

Results, then the compound that gave them:

IC50 (CDK2 [1]) | IC50 (CDK2 [2]) | SMILES
267 nM | 378 nM | O=C1CCC(N2C(=O)c3cc(F)c(N4CCN(Cc5cccc(S(=O)(=O)N6CCC(Nc7ncc8cc(C(F)F)c(=O)n(C9CCCC9)c8n7)CC6)c5)CC4)cc3C2=O)C(=O)N1 (stereo not drawn) [Compound 45, 5-(4-(3-((4-((8-cyclopentyl-6-(difluoromethyl)-7-oxo-7,8-dihydropyrido[2,3-d]pyrimidin-2-yl)-amino)piperidin-1-yl)sulfonyl)-benzyl)piperazin-1-yl)-2-(2,6-dioxopiperidin-3-yl)-6-fluoro-isoindoline-1,3-dione]
135 nM | 297 nM | Cn1c(=O)n(C2CCC(=O)NC2=O)c2cccc(C3CN(Cc4cccc(S(=O)(=O)N5CCC(Nc6ncc7ccc(=O)n(C8CCCC8)c7n6)CC5)c4)C3)c21 (stereo not drawn) [Compound 40, 3-(4-(1-(3-((4-((8-cyclopentyl-7-oxo-7,8-dihydropyrido[2,3-d]pyrimidin-2-yl)amino)piperidin-1-yl)sulfonyl)benzyl)azetidin-3-yl)-3-methyl-2-oxo-2,3-dihydro-1H-benzo[d]imidazol-1-yl)piperidine-2,6-dione]
194 nM | 169 nM | CN(C[C@H]1CN(CCCc2cccc3c2n(C)c(=O)n3C2CCC(=O)NC2=O)CCO1)S(=O)(=O)N1CCC(Nc2ncc3ccc(=O)n(C4CCCC4)c3n2)CC1 (stereo partly drawn) [Compound 24, 4-((8-cyclopentyl-7-oxo-7,8-dihydropyrido[2,3-d]pyrimidin-2-yl)amino)-N-(((2R)-4-(3-(1-(2,6-dioxopiperidin-3-yl)-3-methyl-2-oxo-2,3-dihydro-1H-benzo[d]imidazol-4-yl)propyl)morpholin-2-yl)methyl)-N-methylpiperidine-1-sulfonamide]
882 nM | 334 nM | O=C1CCC(N2Cc3c(OCCN4CC(Oc5cccc(S(=O)(=O)N6CCC(Nc7ncc8ccc(=O)n(C9CCCC9)c8n7)CC6)c5)C4)cccc3C2=O)C(=O)N1 (stereo not drawn) [Compound 27, 3-(4-(2-(3-(3-((4-((8-cyclopentyl-7-oxo-7,8-dihydropyrido[2,3-d]pyrimidin-2-yl)amino)-piperidin-1-yl)sulfonyl)phenoxy)azetidin-1-yl)-ethoxy)-1-oxoisoindolin-2-yl)piperidine-2,6-dione]
3790 nM | 791 nM | CN(CCCOCCCc1cccc2c1C(=O)N(C1CCC(=O)NC1=O)C2=O)S(=O)(=O)N1CCC(Nc2ncc3ccc(=O)n(C4CCCC4)c3n2)CC1 (stereo not drawn) [Compound 10, 4-((8-cyclopentyl-7-oxo-7,8-dihydropyrido[2,3-d]-pyrimidin-2-yl)amino)-N-(3-(3-(2-(2,6-dioxo-piperidin-3-yl)-1,3-dioxoisoindolin-4-yl)-propoxy)propyl)-N-methylpiperidine-1-sulfonamide]
1170 nM | 127 nM | CN(C1CCN(Cc2cccc3c2n(C)c(=O)n3C2CCC(=O)NC2=O)CC1)S(=O)(=O)N1CCC(Nc2ncc3ccc(=O)n(C4CCCC4)c3n2)CC1 (stereo not drawn) [Compound 20, 4-((8-cyclopentyl-7-oxo-7,8-dihydropyrido[2,3-d]pyrimidin-2-yl)amino)-N-(1-((1-(2,6-dioxo-piperidin-3-yl)-3-methyl-2-oxo-2,3-dihydro-1H-benzo[d]imidazol-4-yl)methyl)piperidin-4-yl)-N-methylpiperidine-1-sulfonamide]
633 nM | 668 nM | Cn1c(=O)n(C2CCC(=O)NC2=O)c2cccc(C#CCOC3CCN(S(=O)(=O)N4CCC(Nc5ncc6ccc(=O)n(C7CCCC7)c6n5)CC4)CC3)c21 (stereo not drawn) [Compound 14, 3-(4-(3-((1-((4-((8-cyclopentyl-7-oxo-7,8-dihydropyrido[2,3-d]pyrimidin-2-yl)amino)-piperidin-1-yl)sulfonyl)piperidin-4-yl)oxy)prop-1-yn-1-yl)-3-methyl-2-oxo-2,3-dihydro-1H-benzo[d]imidazol-1-yl)piperidine-2,6-dione]
7940 nM | 3040 nM | CO[C@H]1CN(S(=O)(=O)c2cccc(CN3CCN(c4cc5c(cc4F)C(=O)N(C4CCC(=O)NC4=O)C5=O)CC3)c2)CC[C@@H]1Nc1ncc2ccc(=O)n(C3CCCC3)c2n1 (stereo partly drawn) [Compound 64, 5-(4-(3-(((3S,4S)-4-((8-cyclopentyl-7-oxo-7,8-dihydropyrido[2,3-d]pyrimidin-2-yl)amino)-3-methoxypiperidin-1-yl)sulfonyl)benzyl)piperazin-1-yl)-2-(2,6-dioxopiperidin-3-yl)-6-fluoro-isoindoline-1,3-dione]
438 nM | 257 nM | O=C1CCC(N2C(=O)c3ccc(CN4CC(Oc5ccc(S(=O)(=O)N6CCC(Nc7ncc8ccc(=O)n(C9CCCC9)c8n7)CC6)cc5)C4)cc3C2=O)C(=O)N1 (stereo not drawn) [compound 8, 5-((3-(4-((4-((8-cyclopentyl-7-oxo-7,8-dihydro-pyrido[2,3-d]pyrimidin-2-yl)amino)piperidin-1-yl)sulfonyl)phenoxy)azetidin-1-yl)methyl)-2-(2,6-dioxopiperidin-3-yl)isoindoline-1,3-dione]
